For one data set, the target named is T1, IRAK1 (Homo sapiens, UniProt P51617).
T1 construct: purchased Upstate, Millipore Bioscience Division (KinaseProfiler service)
Put plainly: Kinase panel screen (KinaseProfiler), IRAK1. In kind it is biochemical. As to conditions: 10 μM ATP. The protocol: (§1) Compounds of Formulae I and II were examined for activity against a selected panel of kinases using the KinaseProfiler™ enzyme profiling services (Upstate, Millipore Bioscience Division). Percent kinase activity at 10 μM and 1 μM test compound and 10 μM ATP was determined against 40 wild-type recombinant human kinases according to Upstate's standard protocol: ASK1, BTK, CSK, c-RAF, GCK, GSK3β, IKKα, IKKβ, IRAK1, IRAK4, JNK1α1, JNK2α2, JNK3, ERK1, ERK2, MAPKAP-K2, MAPKAP-K3, MEK1, MKK4, MKK6, MKK7β, Mnk2, MSK1, PAK3, PDK1, PRAK, ROCK1, Rsk2, SAPK2a, SAPK2b, SAPK3, SAPK4, SRPK1, SRPK2, Syk, TAK1, TBK1, PI3-Kβ, PI3-Kγ, PI3-Kδ.

Another data set addresses T2, ERK1 (Homo sapiens, UniProt P27361).
T2 construct: purchased Upstate, Millipore Bioscience Division (KinaseProfiler service)
Put plainly: Kinase panel screen (KinaseProfiler), ERK1. Type of data set: biochemical. The method, then: as §1

In data set [1] the test system is ova-sensitized, ova-challenged mice. Nature of the data set: Prevention of airway hyperreactivity (Penh, methacholine) in mouse ovalbumin sensitization model. In kind it is in vivo. As to conditions: for log10AUC (Penh): days 27 to 31. The protocol: The anti-inflammatory dosing paradigm consists of dosing the animals once a day starting on day 27 and finishing on either day 30 or 31 (1 hr prior to the aerosolized ovalbumin challenges on days 28 to 30) but not on day 32 when hyperreactivity evaluation occurs. […] Exposure to the methacholine doses consisted of a 3 minute period during which a nebulizer was aerosolizing the methacholine and an additional 3 minute period following the cessation of nebulization. […] Enhanced pause (Penh), a unitless index of airway hyperreactivity, is derived from the expiratory side of the respiratory waveform measured via the plethysmograph and is used as an indirect measure of airway resistance and hyperreactivity. […] Following the methacholine dose response, BALF was collected and all animals were anesthetized, bled and euthanized. […] The Penh value at each of the dose levels of methacholine represents the 6-minute average response. Change from baseline (CFB) in Penh was calculated at each methacholine dose and the area under the curve (AUC) for these CFB values was calculated using the trapezoidal rule. This same approach was applied for each mouse across multiple experiments. […] Data from equal experimental conditions across experiments performed on different days were pooled for statistical analysis and data reporting. […] A random intercept for each experiment was assumed to account for possible similarities of the results obtained from a given experiment (i.e., as a “blocking effect”). […] For FIG. 9, linear AUC values from compound treated mice were reported as a percent of linear AUC values from vehicle-treated ovalbumin-sensitized/ovalbumin-challenged (asthmatic) mice.

The target in a further data set is T3, Mnk2 (Homo sapiens, UniProt Q9HBH9).
T3 construct: purchased Upstate, Millipore Bioscience Division (KinaseProfiler service)
T3 sequence (Q9HBH9 whole entry): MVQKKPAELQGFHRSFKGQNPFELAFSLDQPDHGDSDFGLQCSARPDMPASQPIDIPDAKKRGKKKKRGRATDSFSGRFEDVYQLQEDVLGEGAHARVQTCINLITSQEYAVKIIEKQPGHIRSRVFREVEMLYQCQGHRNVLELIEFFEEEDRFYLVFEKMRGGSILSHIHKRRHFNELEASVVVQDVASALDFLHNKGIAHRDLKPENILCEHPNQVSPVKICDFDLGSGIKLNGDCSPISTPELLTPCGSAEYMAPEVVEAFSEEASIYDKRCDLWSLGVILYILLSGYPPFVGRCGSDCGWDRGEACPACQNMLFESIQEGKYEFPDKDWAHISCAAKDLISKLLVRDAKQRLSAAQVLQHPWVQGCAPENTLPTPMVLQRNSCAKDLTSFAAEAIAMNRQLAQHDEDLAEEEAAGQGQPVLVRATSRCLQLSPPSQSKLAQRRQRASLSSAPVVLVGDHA
Nature of the data set: Kinase panel screen (KinaseProfiler), Mnk2. In kind it is biochemical. As to conditions: 10 μM ATP. The protocol: as §1

The target in a further data set is T4, ROCK2 (Homo sapiens, UniProt O75116).
T4 construct: purchased Upstate/Chemicon 14-451
T4 sequence (O75116 11-552 limits assumed): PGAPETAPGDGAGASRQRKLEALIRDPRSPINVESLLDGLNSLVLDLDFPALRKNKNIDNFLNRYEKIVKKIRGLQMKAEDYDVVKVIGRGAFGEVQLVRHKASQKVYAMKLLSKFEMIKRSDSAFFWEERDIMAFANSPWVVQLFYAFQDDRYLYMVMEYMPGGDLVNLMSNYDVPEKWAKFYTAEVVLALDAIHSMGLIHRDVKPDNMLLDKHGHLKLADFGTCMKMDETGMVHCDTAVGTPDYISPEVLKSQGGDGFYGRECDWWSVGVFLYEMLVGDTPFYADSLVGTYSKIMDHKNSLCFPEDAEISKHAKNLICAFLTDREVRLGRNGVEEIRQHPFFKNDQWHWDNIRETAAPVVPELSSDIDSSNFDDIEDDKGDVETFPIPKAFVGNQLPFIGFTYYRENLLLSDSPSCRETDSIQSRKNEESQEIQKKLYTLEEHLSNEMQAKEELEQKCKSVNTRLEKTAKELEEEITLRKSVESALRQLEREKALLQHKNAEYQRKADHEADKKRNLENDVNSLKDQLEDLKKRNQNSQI
Put plainly: Rho kinase inhibition assay (IMAP fluorescence polarization), ROCK2.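 Further: kinase reaction started with 10 µM ATP and run 60 min at room temperature, then phosphorylated substrate captured on IMAP beads for 30 min and fluorescence polarization read in mP.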 In kind it is biochemical.

A further data set addresses T5, Akt3 human enzyme (Homo sapiens, UniProt Q9Y243).
T5 construct: purchased Upstate Chemicon 14-502
Nature of the data set: Akt3 inhibition assay (IMAP FP).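 Further: kinase reaction run 60 min at room temperature after 30 µM ATP start, phosphorylated substrate captured on IMAP beads and read as fluorescence polarization (mP).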 Type of data set: biochemical.

The target in a further data set is T6, ERK2 (Homo sapiens, UniProt P28482).
T6 construct: purchased Upstate, Millipore Bioscience Division (KinaseProfiler service)
T6 sequence (P28482 whole entry): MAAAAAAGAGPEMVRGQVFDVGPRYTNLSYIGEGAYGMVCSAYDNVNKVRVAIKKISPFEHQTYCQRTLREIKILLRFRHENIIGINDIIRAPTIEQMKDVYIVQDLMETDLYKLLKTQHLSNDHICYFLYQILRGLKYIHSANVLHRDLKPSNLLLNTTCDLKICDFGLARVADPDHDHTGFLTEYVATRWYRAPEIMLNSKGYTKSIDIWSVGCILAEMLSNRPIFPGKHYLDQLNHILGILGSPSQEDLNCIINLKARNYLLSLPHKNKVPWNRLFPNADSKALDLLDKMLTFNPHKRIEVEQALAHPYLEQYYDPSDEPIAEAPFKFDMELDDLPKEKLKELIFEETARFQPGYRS
Put plainly: Kinase panel screen (KinaseProfiler), ERK2. Type of data set: biochemical. The method, then: as §1

The target of another data set is T7, ROCK1 (Homo sapiens, UniProt Q13464).
T7 construct: purchased Upstate/Chemicon 14-601
T7 sequence (Q13464 17-535 limits assumed): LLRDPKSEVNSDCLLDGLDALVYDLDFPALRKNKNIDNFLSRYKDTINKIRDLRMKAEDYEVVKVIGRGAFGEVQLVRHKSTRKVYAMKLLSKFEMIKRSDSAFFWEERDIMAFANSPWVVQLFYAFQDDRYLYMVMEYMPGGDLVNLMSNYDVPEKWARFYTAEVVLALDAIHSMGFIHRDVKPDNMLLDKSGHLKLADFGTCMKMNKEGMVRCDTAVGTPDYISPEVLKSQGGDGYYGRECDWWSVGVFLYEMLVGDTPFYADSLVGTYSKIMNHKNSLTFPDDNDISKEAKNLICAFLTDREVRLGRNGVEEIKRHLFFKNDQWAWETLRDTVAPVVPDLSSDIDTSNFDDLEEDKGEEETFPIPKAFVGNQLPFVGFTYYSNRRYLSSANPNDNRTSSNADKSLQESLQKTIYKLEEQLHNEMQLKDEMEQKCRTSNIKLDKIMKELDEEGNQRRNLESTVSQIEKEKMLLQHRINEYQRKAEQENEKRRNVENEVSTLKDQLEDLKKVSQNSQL
Nature of the data set: Rho kinase inhibition assay (IMAP fluorescence polarization), ROCK1.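 Further: kinase reaction run 60 min at room temperature, then phosphorylated substrate captured on IMAP beads for 30 min, with fluorescence polarization read in mP.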 In kind it is biochemical.

For another data set, the target named is T8, p70S6K human enzyme (Homo sapiens, UniProt P23443, T412E).
T8 construct: purchased Upstate Chemicon 14-486
T8 sequence (P23443 1-421 T412E limits assumed): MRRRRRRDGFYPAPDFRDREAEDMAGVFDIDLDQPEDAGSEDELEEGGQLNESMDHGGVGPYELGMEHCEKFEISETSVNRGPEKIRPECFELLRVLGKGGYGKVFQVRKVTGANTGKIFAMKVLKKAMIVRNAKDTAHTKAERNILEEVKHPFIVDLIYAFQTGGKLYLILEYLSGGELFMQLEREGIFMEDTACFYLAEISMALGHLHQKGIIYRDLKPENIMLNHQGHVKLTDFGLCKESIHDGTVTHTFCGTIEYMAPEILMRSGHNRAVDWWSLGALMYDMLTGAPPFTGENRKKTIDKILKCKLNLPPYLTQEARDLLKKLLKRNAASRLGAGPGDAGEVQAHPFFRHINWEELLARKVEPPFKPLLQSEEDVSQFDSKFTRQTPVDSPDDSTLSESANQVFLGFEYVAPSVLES
Put plainly: p70S6K inhibition assay (IMAP FP).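 Further: kinase reaction run at room temperature, phosphorylated substrate captured on IMAP beads and read as fluorescence polarization in mP, IC50 then converted to Ki.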 In kind it is biochemical.

The target in another data set is T9, GCK (Homo sapiens, UniProt Q12851).
T9 construct: purchased Upstate, Millipore Bioscience Division (KinaseProfiler service)
T9 sequence (Q12851 1-820): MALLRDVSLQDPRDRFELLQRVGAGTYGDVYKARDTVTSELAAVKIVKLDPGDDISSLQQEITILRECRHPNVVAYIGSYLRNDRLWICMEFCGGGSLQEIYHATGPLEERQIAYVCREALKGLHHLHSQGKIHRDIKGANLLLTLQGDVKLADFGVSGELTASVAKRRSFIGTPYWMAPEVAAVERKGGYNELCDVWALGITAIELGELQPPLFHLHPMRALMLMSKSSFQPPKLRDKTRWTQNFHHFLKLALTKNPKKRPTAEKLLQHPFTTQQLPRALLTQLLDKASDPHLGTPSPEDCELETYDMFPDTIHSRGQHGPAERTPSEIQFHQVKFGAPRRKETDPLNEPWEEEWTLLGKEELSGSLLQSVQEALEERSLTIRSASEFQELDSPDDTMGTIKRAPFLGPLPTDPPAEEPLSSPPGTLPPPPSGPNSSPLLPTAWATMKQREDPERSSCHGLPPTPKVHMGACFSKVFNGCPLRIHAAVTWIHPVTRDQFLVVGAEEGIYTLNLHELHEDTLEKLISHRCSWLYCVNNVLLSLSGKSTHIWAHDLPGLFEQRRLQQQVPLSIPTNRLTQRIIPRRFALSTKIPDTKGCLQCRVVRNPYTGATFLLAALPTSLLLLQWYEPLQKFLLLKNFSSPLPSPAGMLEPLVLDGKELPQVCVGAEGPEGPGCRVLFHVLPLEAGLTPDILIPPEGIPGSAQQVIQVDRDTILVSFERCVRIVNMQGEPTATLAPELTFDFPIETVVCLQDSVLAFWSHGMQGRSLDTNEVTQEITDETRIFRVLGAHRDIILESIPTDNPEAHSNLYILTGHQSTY
Put plainly: Kinase panel screen (KinaseProfiler), GCK. Type of data set: biochemical. The method, then:
as §1

In a further data set the test system is human monocytes. Nature of the data set: Human monocyte cytokine secretion assay (LPS-stimulated). Type of data set: cell-based. Particulars: average percent of stimulated IL-6 secretion from human monocytes at 10 μM of test compound.
The nature of data set [2]: Rat oral pharmacokinetics (plasma). Type of data set: in vivo. As to conditions: 20-30 μmol/kg.
Data set [3] in a line: Compound plasma concentrations in unsensitized mice at 15 min post administration. In kind it is in vivo. Particulars: mouse, 15 μmol/kg; mean compound plasma concentration in mice at 15 minutes post oral administration; read-out: Mouse Oral PK.
Data set [4] relates to A-10 rat thoracic aorta cells. Put plainly: PDGF-stimulated smooth muscle cell proliferation assay (BrdU incorporation).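 Further: cells kept in serum-free medium, BrdU allowed to incorporate for 24 h, then incorporated label detected fluorometrically with an anti-BrdU antibody.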 In kind it is cell-based. Particulars: A-10 cells, 10 ng/mL PDGF, BrdU incorporation, percent of total challenge-stimulated proliferation.
Another data set has as its system human neutrophils. Nature of the data set: Human neutrophil chemotaxis induced by fMLP (modified Boyden chamber). Particulars: Neutrophil, 1 h, 1 μM fMLP challenge, one hour, read-out: Chemotaxis Avg. IC50. Type of data set: cell-based. An excerpt:
This assay is an in vitro assay of neutrophil chemotaxis that can be used to evaluate the ability of Rho Kinase inhibitor compounds of Formula I or II to inhibit the migration of human neutrophils, an inflammatory cell that has been implicated in the pathophysiology of allergic conjunctivitis.
Peripheral blood from healthy human volunteers was collected and the neutrophils were isolated by Ficoll-paque density centrifugation followed by dextran sedimentation and hypotonic lysis of the red blood cells. Neutrophil chemotaxis was assessed using a modified Boyden Chamber (Neuroprobe, 96-well) with a 3 μm pore polycarbonate membrane. The ability of the tested compounds to block chemotaxis induced by a 1 μM fMLP challenge during a one hour incubation at 37° C. with 5% CO2 was assessed in a dose response manner.

The mark [5] stands for this setting: 10 μM ATP, read-out: ROCK2 Ki, Avg.
Where [6] appears, read: 30 μM ATP, Ki=IC50/(1+([ATP Challenge]/EC50 ATP)), read-out: Akt3 Ki, Avg.
The mark [7] stands for this setting: 30 μM ATP, Ki=IC50/(1+([ATP Challenge]/EC50 ATP)), read-out: p70S6K Ki, Avg.
The mark [8] stands for this setting: average Ki, read-out: p70S6K Ki.

SMILES strings stand for the structures. Where two headings read alike, the source gives them in different places.

T5 sequence (Q9Y243 whole entry): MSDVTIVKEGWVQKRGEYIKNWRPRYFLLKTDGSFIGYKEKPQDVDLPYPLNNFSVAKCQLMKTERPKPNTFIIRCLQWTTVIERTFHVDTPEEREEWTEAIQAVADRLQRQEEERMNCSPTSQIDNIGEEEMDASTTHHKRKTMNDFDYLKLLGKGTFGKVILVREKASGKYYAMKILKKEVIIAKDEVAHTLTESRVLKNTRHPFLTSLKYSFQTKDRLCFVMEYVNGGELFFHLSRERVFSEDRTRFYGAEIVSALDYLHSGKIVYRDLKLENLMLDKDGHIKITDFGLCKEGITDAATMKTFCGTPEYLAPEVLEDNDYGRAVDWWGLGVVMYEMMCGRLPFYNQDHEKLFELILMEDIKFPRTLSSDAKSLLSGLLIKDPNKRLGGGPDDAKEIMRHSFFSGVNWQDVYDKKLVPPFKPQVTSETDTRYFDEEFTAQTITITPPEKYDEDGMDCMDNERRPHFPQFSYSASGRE
T2 sequence (P27361 whole entry): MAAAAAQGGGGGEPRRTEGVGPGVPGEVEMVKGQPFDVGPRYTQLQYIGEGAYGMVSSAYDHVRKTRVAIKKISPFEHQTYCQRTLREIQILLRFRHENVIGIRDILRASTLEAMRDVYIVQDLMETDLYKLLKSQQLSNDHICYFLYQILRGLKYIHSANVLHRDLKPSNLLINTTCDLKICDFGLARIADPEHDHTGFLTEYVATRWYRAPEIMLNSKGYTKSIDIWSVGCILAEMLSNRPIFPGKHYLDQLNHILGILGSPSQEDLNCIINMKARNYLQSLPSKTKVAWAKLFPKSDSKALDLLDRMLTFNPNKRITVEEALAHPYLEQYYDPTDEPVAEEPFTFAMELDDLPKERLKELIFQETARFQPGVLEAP
T1 sequence (P51617 whole entry): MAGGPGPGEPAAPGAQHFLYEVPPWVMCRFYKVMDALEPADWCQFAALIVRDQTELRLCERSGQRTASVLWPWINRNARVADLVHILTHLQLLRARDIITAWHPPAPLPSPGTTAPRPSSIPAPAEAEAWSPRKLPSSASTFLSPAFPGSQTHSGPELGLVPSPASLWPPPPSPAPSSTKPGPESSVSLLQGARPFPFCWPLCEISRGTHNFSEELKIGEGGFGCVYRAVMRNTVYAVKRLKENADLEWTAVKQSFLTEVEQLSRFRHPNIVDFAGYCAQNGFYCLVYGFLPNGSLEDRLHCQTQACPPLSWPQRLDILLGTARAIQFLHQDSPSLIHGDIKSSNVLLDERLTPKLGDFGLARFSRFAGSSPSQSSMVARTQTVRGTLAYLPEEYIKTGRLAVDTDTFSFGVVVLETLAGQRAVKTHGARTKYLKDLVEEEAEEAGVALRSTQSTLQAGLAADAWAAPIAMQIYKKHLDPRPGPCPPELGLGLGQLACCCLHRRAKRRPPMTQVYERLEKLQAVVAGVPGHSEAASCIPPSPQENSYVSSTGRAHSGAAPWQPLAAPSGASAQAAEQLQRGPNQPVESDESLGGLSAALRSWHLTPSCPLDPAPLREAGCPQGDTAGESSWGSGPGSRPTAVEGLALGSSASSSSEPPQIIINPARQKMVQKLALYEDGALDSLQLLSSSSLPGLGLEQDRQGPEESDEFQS
Procedure for ROCK1: (§2) Following the pre-incubation, 10 μM ATP was added to initiate the reaction. After 60 minutes at room temperature, Molecular Devices IMAP™ binding solution was added to bind phosphorylated substrate. After 30 minutes of incubation in the presence of the IMAP™ beads, the fluorescence polarization was read and the ratio was reported as mP. IC50 values for compounds and EC50 values for ATP were calculated using the Prism software from Graphpad.
Procedure for ROCK2: as §2
Procedure for human monocytes: Peripheral blood from healthy human volunteers was collected and the monocytes isolated via Ficoll-paque density centrifugation. […] The cells were allowed to pre-incubate with test compound at the indicated concentration for 30 minutes (37° C., 5% CO2, humidified air); after which the supernatant was removed and media containing compound and 1 ng/mL LPS was added. Cells were allowed to incubate with compounds and LPS for 4 hours at 37° C. after which the supernatant was removed and stored at −80° C. Cytokine concentrations in the supernatant were determined using commercially available Bio-Rad Bio-plex™ kits according the manufacturer's instructions.

In the case of `OCCn1ccc2cc(CN3CC[C@@H](Nc4cccc5cnccc45)C3)ccc21` [Compound 2.066, (R)-2-(5-((3-(isoquinolin-5-ylamino)pyrrolidin-1-yl)methyl)-1H-indol-1-yl)ethanol], the activity at 1 µM on IRAK1 (1 μM test compound, read-out: IRAK1 Percent inhibition, 1 μM) stood at 74%; at ERK1 (1 μM test compound, 10 μM ATP, read-out: ERK1 Percent inhibition, 1 μM), 52%; on Mnk2 (1 μM test compound, read-out: Mnk2 Percent inhibition, 1 μM), 99%. For the same compound, the activity at 10 µM on IRAK1 (10 μM test compound, read-out: IRAK1 Percent inhibition, 10 μM) came to 32%; on ERK1 (10 μM test compound, 10 μM ATP, read-out: ERK1 Percent inhibition, 10 μM) it was 15%; on Mnk2 (10 μM test compound, read-out: Mnk2 Percent inhibition, 10 μM), 54%; at GCK (10 μM test compound, 10 μM ATP, read-out: GCK Percent inhibition, 10 μM), 7%. Also, the inhibition at 1 µM is ~50% on ERK1 (1 μM, read-out: ERK1 inhibited) and ~50% on ERK2 (1 μM, read-out: ERK2 inhibited). The “log10AUC (Penh)” value in data set [1] (0.5 μmol/kg/intratracheal) came out at 2.0248. In addition, the airway hyperreactivity result in data set [1] (intratracheal once a day during days 27 to 31) was “prevention of airway hyperreactivity”. The Ki came out at 2.3 nM at ROCK2 (setting [5]); 2.3 nM on ROCK2 (average Ki, read-out: ROCK2 Ki); 2510 nM on Akt3 human enzyme (setting [6]); 2510 nM at Akt3 human enzyme (average Ki, read-out: Akt3 Ki); 10.2 nM at ROCK1 (Avg, 10 μM ATP); 10.2 nM at ROCK1 (average Ki). Also, the Ki at p70S6K human enzyme (setting [7]) and at p70S6K human enzyme (setting [8]) was 368 nM in each case. Further, the “ERK2 Percent inhibition, 1 μM” value at ERK2 is reported as 50%. Moreover, at ERK2, the “ERK2 Percent inhibition, 10 μM” value was 12%. For the same compound, at GCK, the “GCK Percent inhibition, 1 μM” value is recorded as 39%.
On to `CSc1ccc(CN2CCC[C@@H](Nc3ccc4[nH]ncc4c3)C2)cc1` [Compound 1.074, (R)-N-(1-(4-(methylthio)benzyl)piperidin-3-yl)-1H-indazol-5-amine], for which the “IL-6, %” value in the data set with human monocytes was determined as 96.0%. This compound also gave a Vz_F in data set [2] (mean n = 3) of 45.7 L/kg. This compound also gave an AUC(0-t) in data set [2] (male, CD Sprague Dawley, mean n = 3) of 1.17 µM·h. For the same compound, the Cmax in data set [2] (male, CD Sprague Dawley, mean n = 3, read-out: Cmax) is 735 nM. The Tmax in data set [2] (male, CD Sprague Dawley, mean n = 3, read-out: Tmax) was 25.2 min. For the same compound, the Ki on ROCK2 (setting [5]) turned out to be 4.1 nM; on ROCK2 (average Ki, read-out: ROCK2 Ki), 4.1 nM; on Akt3 human enzyme (setting [6]), 437 nM; at Akt3 human enzyme (average Ki, read-out: Akt3 Ki), 437 nM; on ROCK1 (Avg, 10 μM ATP) it was 40.1 nM; on ROCK1 (average Ki), 40.1 nM. Moreover, the Ki at p70S6K human enzyme (setting [7]) and on p70S6K human enzyme (setting [8]) was 548 nM throughout. Moreover, in [3], the concentration at 15 min was 506 nM. In [4] (1 μM test compound), the “Percent of PDGF Induced Proliferation at 1 μM Avg” value is given as 79.9%. The “Percent of PDGF Induced Proliferation at 10 μM Avg” value in data set [4] (10 μM test compound) came out at 46.9%.
For `NC(=O)Cn1ccc2ccc(CN3CC[C@@H](Nc4cccc5cnccc45)C3)cc21` [Compound 2.058, (R)-2-(6-((3-(isoquinolin-5-ylamino)pyrrolidin-1-yl)methyl)-1H-indol-1-yl)acetamide], in the data set with human monocytes, the “IL-6, %” value amounted to 1.3%. Moreover, the Ki is 3.3 nM at ROCK2 (setting [5]); 3.3 nM at ROCK2 (average Ki, read-out: ROCK2 Ki); 1940 nM at Akt3 human enzyme (setting [6]); 1940 nM at Akt3 human enzyme (average Ki, read-out: Akt3 Ki); 15.3 nM at ROCK1 (Avg, 10 μM ATP); 15.3 nM at ROCK1 (average Ki). In addition, the Ki on p70S6K human enzyme (setting [7]) and on p70S6K human enzyme (setting [8]) was 213 nM each time. Moreover, the concentration at 15 min in [3] turned out to be 194 nM.
Turning to `C[C@@H]1C[C@H]2[C@@H]3CCC4=CC(=O)C=C[C@]4(C)[C@@]3(F)[C@@H](O)C[C@]2(C)[C@@]1(O)C(=O)CO` [Dexamethasone, dexamethasone, reference compound], in data set [1] (1 mg/kg/oral), the “log10AUC (Penh)” value amounted to 2.0216.
As to `C[C@@H](N)[C@H]1CC[C@H](C(=O)Nc2ccncc2)CC1` [Compound Y-27632, reference compound], in [1] (30 μmol/kg/oral), the “log10AUC (Penh)” value amounted to 1.9942. In the data set on human neutrophils, the IC50 came to 6760 nM.
